In PubChem BioAssay AID1845219 (Molecular Pharmacology Branch, DTP, NCI, 2023):

Tested on: SYO-1 tumor spheroids, viability % test/control
Assay: Anticancer human tumor SYO-1 cell line growth inhibition;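 also: spheroids exposed to agents for 7 days before viability read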;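 as to viability, T/C: 100% = DMSO vehicle control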
Details: spheroids with HUVEC and MSC; for IC50: curve of first compound; for viability, T/C: stronger effect = lower value; active = viability on the fitted dose curve at most 10% of control; inactive = the rest
Summary of the method: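 Complex spheroids of malignant cells with endothelial cells and mesenchymal stem cells; agents alone or combined, from near clinical Cmax (or 10 microM if unknown) down in half-log steps, 0.25% DMSO final.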

[1] = second compound 0.003 µM, first compound 0.0316 µM
[2] = second compound 0.003 µM, first compound 0.1 µM
[3] = second compound 0.003 µM, first compound 0.316 µM
[4] = second compound 0.003 µM, first compound 1 µM
[5] = second compound 0.003 µM, first compound 3.16 µM
[6] = second compound 0.003 µM, first compound 10 µM

[2H]c1nc(C)nc([2H])c1-c1cc(NC[C@@H](C)c2cccc3c(C(=O)NC)ccnc23)ncn1 + COc1cc2c(cc1O)CCNC21CSC2c3c(OC(C)=O)c(C)c4c(c3C(COC1=O)N1C(O)C3Cc5cc(C)c(OC)c(O)c5C(C21)N3C)OCO4
< 0.0316 µM: IC50 (second compound 0.0003 µM) | IC50 (second compound 0.000949 µM) | IC50 (second compound 0.003 µM)
> 10 µM: IC50 (second compound 30 pM) | IC50 (second compound 94.9 pM)
active: viability, T/C (second compound 0.000949 µM, first compound 0.0316 µM) 0.9% | viability, T/C (second compound 0.000949 µM, first compound 0.1 µM) 0.98% | viability, T/C (second compound 0.000949 µM, first compound 0.316 µM) 0.92% | viability, T/C (second compound 0.000949 µM, first compound 1 µM) 0.87% | viability, T/C (second compound 0.000949 µM, first compound 3.16 µM) 0.92% | viability, T/C (second compound 0.000949 µM, first compound 10 µM) 0.94% | viability, T/C [1] 0.96% | viability, T/C [2] 1.13% | viability, T/C [3] 4.62% | viability, T/C [4] 0.12% | viability, T/C [5] 0.12% | viability, T/C [6] 0.2%
inactive: viability, T/C (second compound 30 pM, first compound 0.0316 µM) 95.9% | viability, T/C (second compound 30 pM, first compound 0.1 µM) 101% | viability, T/C (second compound 30 pM, first compound 0.316 µM) 102% | viability, T/C (second compound 30 pM, first compound 1 µM) 102% | viability, T/C (second compound 30 pM, first compound 3.16 µM) 104% | viability, T/C (second compound 30 pM, first compound 10 µM) 102% | viability, T/C (second compound 94.9 pM, first compound 0.0316 µM) 97.7% | viability, T/C (second compound 94.9 pM, first compound 0.1 µM) 97.1% | viability, T/C (second compound 94.9 pM, first compound 0.316 µM) 99.6% | viability, T/C (second compound 94.9 pM, first compound 1 µM) 98.8% | viability, T/C (second compound 94.9 pM, first compound 3.16 µM) 100% | viability, T/C (second compound 94.9 pM, first compound 10 µM) 95.7% | viability, T/C (second compound 0.0003 µM, first compound 0.0316 µM) 10.9% | viability, T/C (second compound 0.0003 µM, first compound 0.1 µM) 11.6% | viability, T/C (second compound 0.0003 µM, first compound 0.316 µM) 12.2% | viability, T/C (second compound 0.0003 µM, first compound 1 µM) 11.5% | viability, T/C (second compound 0.0003 µM, first compound 3.16 µM) 13.1% | viability, T/C (second compound 0.0003 µM, first compound 10 µM) 5.66%

Cc1cc(C)c(CNC(=O)c2cc(-c3ccc(CN4CCOCC4)cc3)cc3c2cnn3C2CCCC2)c(=O)[nH]1 + CC[C@@]1(O)C(=O)OCc2c1cc1n(c2=O)Cc2cc3c(CN(C)C)c(O)ccc3nc2-1
< 0.0316 µM: IC50 (second compound 0.00949 µM) | IC50 (second compound 0.03 µM) | IC50 (second compound 0.0949 µM) | IC50 (second compound 0.3 µM)
active: viability, T/C (second compound 0.00949 µM, first compound 0.1 µM) 9.41% | viability, T/C (second compound 0.00949 µM, first compound 0.316 µM) 15.2% | viability, T/C (second compound 0.00949 µM, first compound 1 µM) 12.5% | viability, T/C (second compound 0.00949 µM, first compound 3.16 µM) 8.6% | viability, T/C (second compound 0.00949 µM, first compound 10 µM) 3.78% | viability, T/C (second compound 0.03 µM, first compound 0.0316 µM) 1.69% | viability, T/C (second compound 0.03 µM, first compound 0.1 µM) 1.58% | viability, T/C (second compound 0.03 µM, first compound 0.316 µM) 1.52% | viability, T/C (second compound 0.03 µM, first compound 1 µM) 1.59% | viability, T/C (second compound 0.03 µM, first compound 3.16 µM) 1.68% | viability, T/C (second compound 0.03 µM, first compound 10 µM) 2.01% | viability, T/C (second compound 0.0949 µM, first compound 0.0316 µM) 1.54% | viability, T/C (second compound 0.0949 µM, first compound 0.1 µM) 1.74% | viability, T/C (second compound 0.0949 µM, first compound 0.316 µM) 1.49% | viability, T/C (second compound 0.0949 µM, first compound 1 µM) 1.89% | viability, T/C (second compound 0.0949 µM, first compound 3.16 µM) 2.19% | viability, T/C (second compound 0.0949 µM, first compound 10 µM) 1.93% | viability, T/C (second compound 0.3 µM, first compound 0.0316 µM) 1.86% | viability, T/C (second compound 0.3 µM, first compound 0.1 µM) 1.8% | viability, T/C (second compound 0.3 µM, first compound 0.316 µM) 2.05% | viability, T/C (second compound 0.3 µM, first compound 1 µM) 2.19% | viability, T/C (second compound 0.3 µM, first compound 3.16 µM) 2.23% | viability, T/C (second compound 0.3 µM, first compound 10 µM) 1.83%
8.35 µM: IC50 (second compound 0.003 µM)
inactive: viability, T/C [1] 89.3% | viability, T/C [2] 90.5% | viability, T/C [3] 91.4% | viability, T/C [4] 91.9% | viability, T/C [5] 80.6% | viability, T/C [6] 43.9% | viability, T/C (second compound 0.00949 µM, first compound 0.0316 µM) 10.4%
